{
  "source": "BindingDB's records for doi:10.1016/0960-894X(96)00438-6",
  "about": "(1996)",
  "data": [
    {"experiment": "In vitro inhibition of thrombin-induced human gel-filtered platelet aggregation.", "units": {"IC50": "µM"}, "values": [
      {"smiles": "O=C(O)C[C@H](NC(=O)[C@@H]1CCCN(C(=O)CCC2CCNCC2)C1)c1cccs1", "note": "[(S)-3-{[(R)-1-(3-Piperidin-4-yl-propionyl)-piperidine-3-carbonyl]-amino}-3-thiophen-2-yl-propionic acid]", "IC50": 0.09},
      {"smiles": "CN(CCC(=O)O)C(=O)C1CCCN(C(=O)CCC2CCNCC2)C1", "note": "(stereo not given) [3-{Methyl-[1-(3-piperidin-4-yl-propionyl)-piperidine-3-carbonyl]-amino}-propionic acid]", "IC50": 28},
      {"smiles": "O=C(O)CCNC(=O)C1CCCN(C(=O)OCC2CCNCC2)C1", "note": "(stereo not given) [3-(2-Carboxy-ethylcarbamoyl)-piperidine-1-carboxylic acid piperidin-4-ylmethyl ester]", "IC50": 5},
      {"smiles": "O=C(O)C(O)CNC(=O)[C@@H]1CCCN(C(=O)CCC2CCNCC2)C1", "note": "(stereo partly drawn) [2-Hydroxy-3-{[(R)-1-(3-piperidin-4-yl-propionyl)-piperidine-3-carbonyl]-amino}-propionic acid]", "IC50": 0.8},
      {"smiles": "COC(=O)C(CC(=O)O)NC(=O)C1CCCN(C(=O)CCC2CCNCC2)C1", "note": "(stereo not given) [2-{[1-(3-Piperidin-4-yl-propionyl)-piperidine-3-carbonyl]-amino}-succinic acid 1-methyl ester]", "IC50": 1},
      {"smiles": "O=C(O)C[C@@H](C#Cc1ccccc1)NC(=O)[C@@H]1CCCN(C(=O)CCC2CCNCC2)C1", "note": "[(S)-5-Phenyl-3-{[(R)-1-(3-piperidin-4-yl-propionyl)-piperidine-3-carbonyl]-amino}-pent-4-ynoic acid]", "IC50": 0.08},
      {"smiles": "O=C(NCCc1nnn[nH]1)C1CCCN(C(=O)CCC2CCNCC2)C1", "note": "(stereo not given) [1-(3-Piperidin-4-yl-propionyl)-piperidine-3-carboxylic acid [2-(1H-tetrazol-5-yl)-ethyl]-amide]", "IC50": 40},
      {"smiles": "O=C(O)C[C@H](NC(=O)[C@@H]1CCCN(C(=O)CCC2CCNCC2)C1)c1ccc2c(c1)OCO2", "note": "[(S)-3-Benzo[1,3]dioxol-5-yl-3-{[(R)-1-(3-piperidin-4-yl-propionyl)-piperidine-3-carbonyl]-amino}-propionic acid]", "IC50": 0.02},
      {"smiles": "O=C(O)C1CCCC(NC(=O)C2CCCN(C(=O)CCC3CCNCC3)C2)C1", "note": "(stereo not given) [3-{[1-(3-Piperidin-4-yl-propionyl)-piperidine-3-carbonyl]-amino}-cyclohexanecarboxylic acid]", "IC50": "> 50"},
      {"smiles": "CC(CNC(=O)C1CCCN(C(=O)CCC2CCNCC2)C1)C(=O)O", "note": "(stereo not given) [2-Methyl-3-{[1-(3-piperidin-4-yl-propionyl)-piperidine-3-carbonyl]-amino}-propionic acid]", "IC50": "> 10"}
    ]}
  ]
}
